Reference: article PMC13379236 (Cell reports, 2026)

Columns and labels:
[1] = biological target: T1, ZYG11B-EloBC (Homo sapiens, UniProt Q9C0D3); experiment: MBP pull-down with substrate receptor module ZYG11B-EloBC; assay type: binding; details: MBP fusion on amylose resin, prey 1:1, 1 h, 4°C; SDS-PAGE, Coomassie
Method: Peptides corresponding to […] and […] were appended to the N terminus of maltose-binding protein (MBP) and cloned into pET-28a containing an N-terminal His6 tag followed by a TEV protease cleavage site. Fusion proteins were purified by Ni-NTA chromatography, digested with TEV protease, and passed over Ni-NTA resin again to remove TEV and the cleaved His6 tag. Final purification was performed by size-exclusion chromatography. The resulting proteins contained MBP fused to N-terminal Gly/N-degron overhangs. For pulldown experiments, approximately 100 μg MBP fusion protein was immobilized on 50 μL amylose resin and incubated with prey protein at a 1:1 molar ratio for 1 h at 4°C. Resin was washed three times, and bound proteins were eluted in sizing buffer supplemented with 20 mM maltose. Samples were analyzed by SDS-PAGE and Coomassie staining. Pulldown efficiency was quantified as the ratio of MBP–NLRP1 degron signal to ZYG11B signal in the same gel lane. […]
incubation of full-length Cyclin B1 without Gly/N-degron with ZYG11B–EloBC (top). SDS–PAGE analysis of the indicated fractions from the Superose 6 column (dashed lines) confirms complex formation (bottom) C, fluorescence anisotropy binding of ZYG11B-EloBC to indicated fluorescein-labeled peptides (left) and fitted equilibrium dissociation constants (right). […]

[2] = system: CRL2^ZYG11B; experiment: MBP pull-down with E3 holoenzyme CRL2^ZYG11B; assay type: binding, human; details: MBP fusion on amylose resin, prey 1:1, 1 h, 4°C; SDS-PAGE, Coomassie
Method: Bacmids were generated in DH10Bac cells and transfected into Sf9 cells to produce recombinant baculovirus, which was amplified through two additional rounds. Four liters of Sf9 cells at 2 × 10 ^6 cells/mL were infected with amplified virus and harvested after 60 h. Cell pellets were resuspended in buffer B (50 mM Tris-HCl, 500 mM NaCl, 0.5 mM EDTA, 0.5 mM TCEP, and 1 mM PMSF) supplemented with protease inhibitors, lysed by sonication, and clarified by ultracentrifugation at 40,000 rpm for 1 h. The supernatant was incubated with Strep-Tactin Sepharose resin for 2 h, washed extensively with buffer B, and eluted with 20 mM HEPES, pH 7.5, 300 mM NaCl, 0.5 mM TCEP, and 10 mM D-desthiobiotin. The complex was further purified by size-exclusion chromatography in the same sizing buffer used for ZYG11B–EloBC.
To reconstitute the pentameric CRL2–ZYG11B complex (ZBCC), purified ZYG11B–EloBC and CUL2/Rbx1 complexes were mixed at a 1:1 molar ratio and incubated on ice for 30 min. […]
Peptides corresponding to […] and […] were appended to the N terminus of maltose-binding protein (MBP) and cloned into pET-28a containing an N-terminal His6 tag followed by a TEV protease cleavage site. […] Samples were analyzed by SDS-PAGE and Coomassie staining. Pulldown efficiency was quantified as the ratio of MBP–NLRP1 degron signal to ZYG11B signal in the same gel lane. […]

[3] = system: CUL5/RBX2 with ZYG11B-EloBC; assay type: binding, human
[4] = system: NLRP1; details: treatment of cells with pan-CRL inhibitor; cited from earlier work
Excerpt: Human NLRP1 (NACHT, LRR, and PYD domains-containing protein 1) has recently been characterized as a substrate of CRL2 in complex with either ZYG11B or ZER1.[7] NLRP1 is an effector-triggered immunity (ETI) sensor of pathogen-encoded proteases, wherein cleavage of NLRP1 in mice and humans by specific bacterial or viral proteases results in inflammasome formation, which leads to subsequent release of pro-inflammatory cytokines such as IL-1b and IL-18 and pyroptotic cell death.[7]-[10] The mechanism by which this occurs, termed functional degradation, depends on specific recognition, ubiquitinati ...

[5] = biological target: T1, ZYG11B-EloBC; assay type: binding

T1 sequence (Q9C0D3 whole entry, the tested form may be a part): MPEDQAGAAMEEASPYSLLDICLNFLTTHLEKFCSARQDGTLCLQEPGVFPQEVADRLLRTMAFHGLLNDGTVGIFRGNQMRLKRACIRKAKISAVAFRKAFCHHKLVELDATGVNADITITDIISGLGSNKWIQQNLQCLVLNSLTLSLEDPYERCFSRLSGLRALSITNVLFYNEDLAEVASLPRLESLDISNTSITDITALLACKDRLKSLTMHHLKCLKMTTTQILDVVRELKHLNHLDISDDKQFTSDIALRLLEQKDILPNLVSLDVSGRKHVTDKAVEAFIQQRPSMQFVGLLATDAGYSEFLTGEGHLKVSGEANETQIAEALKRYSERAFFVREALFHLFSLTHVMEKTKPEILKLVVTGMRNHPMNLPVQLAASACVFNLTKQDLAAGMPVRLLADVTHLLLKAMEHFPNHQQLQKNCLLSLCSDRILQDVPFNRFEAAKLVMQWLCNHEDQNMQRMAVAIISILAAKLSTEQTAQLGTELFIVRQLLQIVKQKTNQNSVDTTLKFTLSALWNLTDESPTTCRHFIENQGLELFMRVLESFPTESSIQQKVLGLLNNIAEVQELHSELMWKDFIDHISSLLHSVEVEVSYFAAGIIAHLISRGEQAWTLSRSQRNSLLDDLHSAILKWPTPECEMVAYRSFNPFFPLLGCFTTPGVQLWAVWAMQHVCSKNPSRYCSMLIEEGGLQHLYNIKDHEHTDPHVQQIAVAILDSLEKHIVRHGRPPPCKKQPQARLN
T1 sequence (Q15370 whole entry partner, the tested form may be a part): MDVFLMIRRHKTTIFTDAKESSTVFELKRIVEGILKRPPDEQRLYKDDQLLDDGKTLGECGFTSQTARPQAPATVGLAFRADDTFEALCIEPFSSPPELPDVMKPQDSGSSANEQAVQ
T1 sequence (Q15369 17-112 partner limits assumed): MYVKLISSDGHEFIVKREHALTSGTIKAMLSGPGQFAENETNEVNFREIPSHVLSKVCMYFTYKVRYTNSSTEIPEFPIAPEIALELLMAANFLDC

| Compound | interaction with ZYG11B-EloBC [1] | interaction with CRL2^ZYG11B [2] | amount of CUL5/RBX2 retained compared to CUL2/RBX1 [3] | effect on HRV-mediated activation of NLRP1 [4] | co-purification / complex formation with ZYG11B-EloBC [5] |
| --- | --- | --- | --- | --- | --- |
| GSERRVLRQLPDTSGRRWRE [Degron-20] | interacted | interacted | reduced compared to CUL2/RBX1 | – | – |
| NS(=O)(=O)OC[C@@H]1C[C@@H](n2ccc3c(N[C@H]4CCc5ccccc54)ncnc32)C[C@@H]1O [MLN4924] | – | – | – | impairs HRV-mediated activation of NLRP1 | – |
| GSERRVLRQL [Degron-10] | interacted | interacted | reduced compared to CUL2/RBX1 | – | – |
| GSERRVLRQLPDTSG [chimera] | – | – | – | – | copurified with ZYG11B-EloBC |
